Eight compounds from patent US20150306232A1, “HYDROGELATORS COMPRISING D-AMINO ACIDS” (BRANDEIS UNIVERSITY, priority 2012, published 2015) can be followed below.

The structures appear in SMILES notation. Non-standard residues stand in square brackets, D forms with d. Residues, ends and D or L forms follow the SMILES beside them. *: point of attachment. Paclitaxel(2'-O-succinyl) = CC(=O)O[C@H]1C(=O)[C@@]2(C)[C@H]([C@H](OC(=O)c3ccccc3)[C@]3(O)C[C@H](OC(=O)[C@H](OC(=O)CCC(=O)*)[C@@H](NC(=O)c4ccccc4)c4ccccc4)C(C)=C1C3(C)C)[C@]1(OC(C)=O)CO[C@@H]1C[C@@H]2O; Naproxen = COc1ccc2cc([C@H](C)C(=O)*)ccc2c1; d(pY) = N[C@H](Cc1ccc(OP(=O)(O)O)cc1)C(=O)O; Acetyl(2-naphthyl) = O=C(Cc1ccc2ccccc2c1)*

The test system of one data set is HeLa cells. As to the kind of experiment: cells. Format: cell-based. Conditions: 72 hours at 37° C., MTT; read-out: IC50, HeLa cell viability. The method, then: We seeded […] (cells/well) of health HeLa cells into 96-well plate with 100 μL of MEM medium supplemented with 10% fetal bovine serum (FBS), 100 U/mL penicillin and 100 mg mL21 streptomycin. The incubation at 37° C. and 5% CO2 for 12 hours allowed HeLa cells to attach the bottom of 96-well plate. Then we replaced the medium by another 100 μL of growth medium that contained serial diluents of our compounds (0.5% DMSO) and then incubated the cells at 37° C. and 5% CO2 for additional 72 hours. During the measurement of proliferation for HeLa cells, which were assayed into three days, we added 10 μL of (3-(4,5-Dimethylthiazol-2-yl)-2,5-diphenyltetrazolium bromide (MTT, 0.5 mg/mL) into the assigned wells in their corresponding day every 24 hours, which was followed by adding 100 μL of 0.1% sodium dodecyl sulfate (SDS) 4 hours later. Then we collected the assay results after another 24 hours incubation. Since the mitochondrial reductase in living cells reduced MTT to purple fomazan, the absorbance at 595 nm of the whole solution was finally measured by DTX 880 Multimode Detector. With MEM medium as blank and untreated HeLa cells as control, we measure each concentration of these compounds in triplicate. The IC50 values of our hydrogelators were read from their activity curves (with the measurement of 8 different concentrations) in day 3.

Data set [1] is described as follows: enzymatic hydrogelation with ALP. The class given is physicochemical. The following applies: water, pH 7.4. How it is done:
To investigate the enzymatic hydrogelation of the D-peptidic precursor 11b, we prepared a series of hydrogels formed by using ALP to treat 11b at different concentrations. After dissolving 1.0, 2.0, 3.0, 4.0, and 5.0 mg of 11b in 0.5 mL of water (pH 7.6), respectively, we obtained clear solutions of 11b with different concentrations. The treatment of the solutions of 11b with ALP (1.0 U/mL) afforded the molecules of hydrogelator 12b, which are less soluble than 11b and thus self-assemble in water to form hydrogels when the concentrations of 12b are sufficient.
All the compounds were dissolved in de-ionized water. We then adjusted pH of the solutions carefully adding 1 M of NaOH and 1 M of HCl and measured the values by pH paper (pH 6.0-8.0). After prepared clear weakly basic solutions (pH 7.6 or 7.4), we then formed the hydrogels by adding enzymes (alkaline phosphatase).

Data set [2] in a line: toxicity and relative weight of treated mice. Format: in vivo, Balb/c mice. Conditions: hydrogel, single intratumoral injection, 14 days.
The test system of another data set is COX-1. As to the kind of experiment: COX-1 (μM). An excerpt:
(§1) Table printed on a drawing sheet, Figure 7
Head of the field: COX-1 (μM)
(§2) First copying reader's note: The head cell at top left is split by a diagonal line (IC50 for the columns, Hydrogel for the rows); the footnote for the mark ^a is not printed on the sheet.
Where the first naming reader finds the target: head: COX-1 (μM)

A further data set has as its target COX-2 (Homo sapiens, UniProt P35354). As to the kind of experiment: COX-2 (μM).
Excerpt: as §1
Head of the field: COX-2 (μM)
as §2
Where the first naming reader finds the target: head: COX-2 (μM)

In a further data set the target is T1, COX-1 (ovine) enzyme (Ovis aries, UniProt P05979).
T1 construct: purchased Cayman Chemical 700100
T1 sequence (P05979 25-600): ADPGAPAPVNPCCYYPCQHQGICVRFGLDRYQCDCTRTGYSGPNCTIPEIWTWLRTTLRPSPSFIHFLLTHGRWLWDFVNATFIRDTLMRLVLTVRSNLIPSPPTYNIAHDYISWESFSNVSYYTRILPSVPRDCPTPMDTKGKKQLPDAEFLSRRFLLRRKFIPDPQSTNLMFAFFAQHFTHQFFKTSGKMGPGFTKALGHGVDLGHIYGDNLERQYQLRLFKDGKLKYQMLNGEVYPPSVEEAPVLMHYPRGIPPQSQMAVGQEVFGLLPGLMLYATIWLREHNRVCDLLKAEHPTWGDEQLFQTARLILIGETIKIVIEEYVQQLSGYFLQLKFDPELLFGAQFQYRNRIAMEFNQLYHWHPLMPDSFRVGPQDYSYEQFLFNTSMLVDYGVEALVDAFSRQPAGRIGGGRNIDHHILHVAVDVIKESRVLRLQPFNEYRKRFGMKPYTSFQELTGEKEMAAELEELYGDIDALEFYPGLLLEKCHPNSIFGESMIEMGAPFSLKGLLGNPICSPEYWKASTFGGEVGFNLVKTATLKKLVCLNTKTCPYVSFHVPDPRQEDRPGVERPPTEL
As to the kind of experiment: COX Fluorescent Inhibitor Screening Assay, COX-1. The class given is biochemical. Conditions: read-out: IC50 for inhibiting COX-1 enzyme. How it is done: To study the drug efficacies of NSAID containing hydrogelators, here we used ‘COX Fluorescent Inhibitor Screening Assay Kit’ (700100; Cayman Chemical) to do in vitro inhibition assays for Npx and Npx containing hydrogelors 1, 2, 3, 4, 5, and 6. Each compound was tested by COX-1 (ovine) enzyme and COX-2 (human recombinant) enzyme separately in 96 well black assay plates. By utilizing the peroxidase component of COXs, we monitored the reaction between PGG2 and ADHP (10-acetyl-3,7-dihydroxyphenoxazine), which produced highly fluorescent compound resorufin. This resorufin can be easily analyzed by multimode detector with an excitation wavelength of 530-540 nm and an emission wavelength of 585-595 nm. All the compounds are assayed in triplicate. After the combination of 10 μl of inhibitors, 10 μl of Heme solution, 10 μL of fluorometric substrate, 10 μl of enzyme (either COX-1 or COX-2), and 150 μl of assay buffer, we quickly add 10 μl of arachidonic acid solution to initiate the reaction. Then we read the plate exactly after two minutes incubation at room temperature. In this experiment, we also measure the blank data without enzyme and inhibitors, and the control data without inhibitors. The IC50 values of these hydrogelators were read from their activity curves (FIG. 18), which were measured with 5 different concentrations of these hydrogelators (dissolved in DMSO).

Data set [3] can be described thus: in vitro release of hydrogelators from hydrogels. Conditions: 0.8 wt % hydrogel, PBS pH 7.4, 37° C., after 24 hours. The class given is physicochemical. The method, then:
After studying their drug efficacies, the sustained release of Npx-containing hydrogelators from 0.8 wt % of hydrogels was studied. We incubated 100 μL of hydrogels at 37° C. for 24 hours with 100 μL of PBS buffer solution (pH 7.4), which is refreshed and monitored at 1 h, 2 h, 4 h, 8 h, 12 h, and 24 h. […] After 24 hours, hydrogel 1 slowly and steadily released 6.5% of the hydrogelator. […] Hydrogels 5 and 6 release 35.8% and 31.7% of hydrogelators after 24 h.
To illustrate the in vitro release profile of hydrogelators, we prepared 100 μL of the hydrogels formed by 1 (0.8 wt %, pH 4.0), 2 (0.8 wt %, pH 7.6), 3 (0.8 wt %, pH 7.6), 4 (0.8 wt %, pH 7.6), 5 (0.8 wt %, pH 7.0), and 6 (0.8 wt %, pH 7.0). With the addition of PBS buffer (100 μL, pH 7.4) onto the surface of hydrogels, the gels were incubated at 37° C. for 24 hours. The release solutions (100 μL) were taken and refreshed at […], 2 h, 4 h, 8 h, 12 h, and 24 h, which were detected by analytical HPLC at 276 nm for the quantities of released Npx containing hydrogelators 1, 2, 3, 4, 5, and 6.

Data set [4] can be described thus: rheological measurement of Npx containing hydrogels. The class given is physicochemical. The following applies: hydrogel 0.8 wt %; for storage modulus G′: 6.28 rad/s. How it is done:
Rheological tests were conducted on TA ARES G2 rheometer with TA Orchestrator Software. 25 mm cone-plate was used during the experiment. 0.2 mL of hydrogel sample was placed on the cone-plate.
The measurement performs at the frequency of 6.28 rad/s (0.1 to 10% strain, frequency=10 rads^−1, 10 points per decade). Sweep mode is “log” and temperature was carried out at 25° C. The critical strain (γc) value was determined from the storage-strain profiles of the hydrogel sample. The strain applied to the hydrogel sample increased from 0.1 to 100% (10 rad/s and 25° C.). Over a certain strain, a drop in the elastic modulus was observed, and the strain amplitude at which storage moduli just begins to decrease by 5% from its maximum value was determined and taken as a measure of the critical strain of the hydrogels, which correspond to the breakdown of the cross-linked network in the hydrogel sample.
The frequency ranges from 200 rad/s to 0.1 rad/s, depending on the viscoelastic properties of each sample. A suitable strain was used to ensure the linearity of dynamic viscoelasticity.

Sequence of COX-2 (P35354 18-604 limits assumed): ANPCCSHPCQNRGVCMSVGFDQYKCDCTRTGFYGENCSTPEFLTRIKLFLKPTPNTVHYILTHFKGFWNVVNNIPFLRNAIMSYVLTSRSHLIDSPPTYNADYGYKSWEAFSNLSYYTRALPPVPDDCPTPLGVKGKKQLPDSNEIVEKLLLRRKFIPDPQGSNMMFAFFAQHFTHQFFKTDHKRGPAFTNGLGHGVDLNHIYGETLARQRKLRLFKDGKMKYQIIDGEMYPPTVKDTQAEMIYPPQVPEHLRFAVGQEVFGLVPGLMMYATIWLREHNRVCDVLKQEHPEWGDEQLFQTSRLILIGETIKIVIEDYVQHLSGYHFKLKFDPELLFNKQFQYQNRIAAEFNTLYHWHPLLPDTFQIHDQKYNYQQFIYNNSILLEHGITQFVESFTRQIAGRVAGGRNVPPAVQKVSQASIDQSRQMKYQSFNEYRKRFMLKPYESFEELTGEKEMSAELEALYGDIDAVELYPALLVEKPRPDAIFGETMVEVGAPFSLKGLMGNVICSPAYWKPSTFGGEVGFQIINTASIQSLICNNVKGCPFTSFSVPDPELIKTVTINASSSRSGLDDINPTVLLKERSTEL

Consider `CC(=O)O[C@H]1C(=O)[C@@]2(C)[C@H]([C@H](OC(=O)c3ccccc3)[C@]3(O)C[C@H](OC(=O)[C@H](OC(=O)CCC(=O)NCCCC[C@@H](NC(=O)[C@@H](Cc4ccccc4)NC(=O)[C@@H](Cc4ccccc4)NC(=O)Cc4ccc5ccccc5c4)C(=O)N[C@H](Cc4ccc(OP(=O)(O)O)cc4)C(=O)O)[C@@H](NC(=O)c4ccccc4)c4ccccc4)C(C)=C1C3(C)C)[C@]1(OC(C)=O)CO[C@@H]1C[C@@H]2O` [19b, 2-(Naphthalen-2-yl)acetyl-(D)-Phe-(D)-Phe-(D)-Lys(Taxol)-(D)-Tyr phosphate] ({Acetyl(2-naphthyl)}-[dF][dF][dK](Paclitaxel(2'-O-succinyl))[d(pY)]-OH), for which, in the data set on HeLa cells, the half-maximal inhibitory concentration (IC50) came to 61.9 nM. In data set [1], the solubility entry was “relatively good solubility”.

Take `CC(=O)O[C@H]1C(=O)[C@@]2(C)[C@H]([C@H](OC(=O)c3ccccc3)[C@]3(O)C[C@H](OC(=O)[C@H](OC(=O)CCC(=O)NCCCC[C@@H](NC(=O)[C@@H](Cc4ccccc4)NC(=O)[C@@H](Cc4ccccc4)NC(=O)Cc4ccc5ccccc5c4)C(=O)N[C@H](Cc4ccc(O)cc4)C(=O)O)[C@@H](NC(=O)c4ccccc4)c4ccccc4)C(C)=C1C3(C)C)[C@]1(OC(C)=O)CO[C@@H]1C[C@@H]2O` [20b] ({Acetyl(2-naphthyl)}-[dF][dF][dK](Paclitaxel(2'-O-succinyl))[dY]-OH): the IC50 in the data set on HeLa cells stood at 106 nM. Also, the “side effect from relative weights of mice” value in data set [2] is given as “limit the side effect of Taxol to the mice”. The solubility result in data set [1] is recorded as “relatively good solubility”.

Take `COc1ccc2cc([C@H](C)C(=O)N[C@@H](Cc3ccccc3)C(=O)N[C@@H](Cc3ccccc3)C(=O)O)ccc2c1` [L-1, Naproxen-L-Phe-L-Phe]: the IC50 was found to be 986 µM in the data set with COX-1 and 715 µM against COX-2.

Take `COc1ccc2cc([C@H](C)C(=O)N[C@@H](Cc3ccccc3)C(=O)N[C@@H](Cc3ccccc3)C(=O)N[C@@H](Cc3ccc(O)cc3)C(=O)O)ccc2c1` [L-2, Naproxen-L-Phe-L-Phe-L-Tyr]: the IC50 came to 294 µM in the data set on COX-1 and 144 µM on COX-2.

As for `COc1ccc2cc([C@H](C)C(=O)N[C@H](Cc3ccccc3)C(=O)N[C@H](Cc3ccccc3)C(=O)O)ccc2c1` [compound 1, Naproxen-D-Phe-D-Phe], the IC50 on COX-1 (ovine) enzyme stood at 854 µM. For the same compound, the “hydrogelator released from hydrogel” value in data set [3] came out at 6.5%. Further, in data set [4], the critical strain stood at 1.0% and the “storage modulus G′” value is on record as 5.3×10^4 Pa.

For the compound `COc1ccc2cc([C@H](C)C(=O)N[C@H](Cc3ccccc3)C(=O)N[C@H](Cc3ccccc3)C(=O)N[C@H](CCCCN)C(=O)N[C@H](Cc3ccc(O)cc3)C(=O)O)ccc2c1` [compound 4, Npx-ffky] (Naproxen-[dF][dF][dK][dY]-OH), the “hydrogelator released from hydrogel” value in data set [3] was 19.8%. In data set [4], the critical strain is 5.5% and the “storage modulus G′” value is 1.5×10^2 Pa.

Consider `COc1ccc2cc([C@H](C)C(=O)NCCCC[C@@H](NC(=O)[C@@H](Cc3ccccc3)NC(=O)[C@H](N)Cc3ccccc3)C(=O)O)ccc2c1` [compound 5, D-Phe-D-Phe-D-Lys(naproxen)], for which, at COX-1 (ovine) enzyme, the IC50 is 476 µM.

Turning to `COc1ccc2cc([C@H](C)C(=O)NCCCC[C@@H](NC(=O)[C@@H](Cc3ccccc3)NC(=O)[C@H](N)Cc3ccccc3)C(=O)N[C@H](Cc3ccc(O)cc3)C(=O)O)ccc2c1` [compound 6, D-Phe-D-Phe-D-Lys(naproxen)-D-Tyr] (H-[dF][dF][dK](Naproxen)[dY]-OH), the IC50 on COX-1 (ovine) enzyme amounted to 367 µM.
